pIC50: −log10 of the molar value.
What was measured:
Assay type in all cases: biochemical
SRC = SRC (Homo sapiens, UniProt P12931); experiment: Inhibition of a panel of kinases, in vitro HotSpot kinase assay: SRC; details: D-compounds panel data; 1 μM ATP
Experimental: The degree of inhibition of a panel of kinases is determined using the in vitro HotSpot kinase assay (purified enzymes, ^33P-ATP, an appropriate substrate and 1 μM ATP).

JAK3 = molecular target: T1, JAK3 (Homo sapiens, UniProt P52333); experiment: Inhibition of a panel of kinases, in vitro HotSpot kinase assay: JAK3; details: D-compounds panel data; 1 μM ATP; read-out: IC50 JAK3
T1 sequence (P52333 1-1124): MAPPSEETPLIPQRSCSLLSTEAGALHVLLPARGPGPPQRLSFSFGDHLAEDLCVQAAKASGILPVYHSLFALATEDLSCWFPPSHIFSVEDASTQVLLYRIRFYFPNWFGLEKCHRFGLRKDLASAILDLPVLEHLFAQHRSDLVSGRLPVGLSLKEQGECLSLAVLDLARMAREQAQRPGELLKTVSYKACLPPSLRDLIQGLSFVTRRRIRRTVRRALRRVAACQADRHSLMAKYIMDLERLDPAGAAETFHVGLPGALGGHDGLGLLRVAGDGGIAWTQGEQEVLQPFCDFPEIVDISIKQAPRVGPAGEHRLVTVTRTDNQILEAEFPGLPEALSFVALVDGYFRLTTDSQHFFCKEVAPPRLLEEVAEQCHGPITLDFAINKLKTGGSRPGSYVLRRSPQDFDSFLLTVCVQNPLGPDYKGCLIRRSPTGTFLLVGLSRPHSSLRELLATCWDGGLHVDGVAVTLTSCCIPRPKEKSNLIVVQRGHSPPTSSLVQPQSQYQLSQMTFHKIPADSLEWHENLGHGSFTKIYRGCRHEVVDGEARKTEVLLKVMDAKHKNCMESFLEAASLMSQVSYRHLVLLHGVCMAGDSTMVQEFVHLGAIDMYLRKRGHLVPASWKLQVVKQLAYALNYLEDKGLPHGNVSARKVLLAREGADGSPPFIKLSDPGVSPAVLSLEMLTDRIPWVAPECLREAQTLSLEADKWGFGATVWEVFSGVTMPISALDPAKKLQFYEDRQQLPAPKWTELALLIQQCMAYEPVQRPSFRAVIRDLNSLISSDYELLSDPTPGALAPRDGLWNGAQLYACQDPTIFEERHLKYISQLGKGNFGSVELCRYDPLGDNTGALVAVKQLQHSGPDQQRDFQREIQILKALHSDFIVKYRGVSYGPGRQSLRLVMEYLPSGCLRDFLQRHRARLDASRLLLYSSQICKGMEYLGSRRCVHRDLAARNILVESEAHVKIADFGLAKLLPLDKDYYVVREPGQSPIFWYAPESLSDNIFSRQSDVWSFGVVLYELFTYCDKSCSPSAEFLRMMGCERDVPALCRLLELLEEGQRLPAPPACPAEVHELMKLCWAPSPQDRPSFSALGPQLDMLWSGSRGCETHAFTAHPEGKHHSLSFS

BTK-WT = molecular target: T2, BTK-WT (Homo sapiens, UniProt Q06187); experiment: Btk in vitro inhibitory activity (one of Method A TR-FRET, Method B electrophoretic mobility shift, Method C radiometric filter binding); details: D-compounds panel data; read-out: IC50 BTK-WT
T2 construct: purified from insect cells as a full-length construct containing an N-terminal 6X-His tag; His6 (N); made in house; host or cells: insect cells (baculovirus Sf21 in Method B)

LCK = LCK (Homo sapiens, UniProt P06239); experiment: Inhibition of a panel of kinases, in vitro HotSpot kinase assay: LCK; details: D-compounds panel data; 1 μM ATP; read-out: IC50 LCK
Sequence of LCK (P06239 whole entry): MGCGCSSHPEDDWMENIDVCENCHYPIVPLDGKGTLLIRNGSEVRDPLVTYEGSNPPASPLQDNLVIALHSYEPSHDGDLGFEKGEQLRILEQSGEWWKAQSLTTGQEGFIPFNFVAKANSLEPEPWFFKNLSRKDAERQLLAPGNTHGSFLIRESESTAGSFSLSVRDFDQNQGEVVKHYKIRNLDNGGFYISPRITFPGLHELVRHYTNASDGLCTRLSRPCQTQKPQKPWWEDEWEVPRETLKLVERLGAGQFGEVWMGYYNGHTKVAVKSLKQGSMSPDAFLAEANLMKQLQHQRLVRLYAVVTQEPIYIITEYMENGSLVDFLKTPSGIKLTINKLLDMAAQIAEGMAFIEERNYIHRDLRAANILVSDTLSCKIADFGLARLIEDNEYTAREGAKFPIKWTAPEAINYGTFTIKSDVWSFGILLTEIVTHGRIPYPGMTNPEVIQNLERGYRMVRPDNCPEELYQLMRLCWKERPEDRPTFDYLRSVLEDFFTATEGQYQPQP

Sequence of SRC (P12931 whole entry): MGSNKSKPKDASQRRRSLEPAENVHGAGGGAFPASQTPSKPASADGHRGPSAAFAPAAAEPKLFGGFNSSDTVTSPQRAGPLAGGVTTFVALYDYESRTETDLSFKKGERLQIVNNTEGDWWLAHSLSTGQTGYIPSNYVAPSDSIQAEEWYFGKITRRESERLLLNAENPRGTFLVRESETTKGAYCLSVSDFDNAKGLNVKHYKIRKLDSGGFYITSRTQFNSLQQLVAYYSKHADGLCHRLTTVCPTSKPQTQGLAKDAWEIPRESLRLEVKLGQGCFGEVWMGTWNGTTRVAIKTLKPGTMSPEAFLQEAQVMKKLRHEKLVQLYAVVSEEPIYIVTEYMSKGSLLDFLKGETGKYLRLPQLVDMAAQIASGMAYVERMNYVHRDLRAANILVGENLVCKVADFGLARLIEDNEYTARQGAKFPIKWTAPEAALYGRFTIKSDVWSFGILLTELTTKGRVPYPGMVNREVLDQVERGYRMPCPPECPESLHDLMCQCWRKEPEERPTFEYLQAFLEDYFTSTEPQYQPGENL
T2 sequence (Q06187 whole entry): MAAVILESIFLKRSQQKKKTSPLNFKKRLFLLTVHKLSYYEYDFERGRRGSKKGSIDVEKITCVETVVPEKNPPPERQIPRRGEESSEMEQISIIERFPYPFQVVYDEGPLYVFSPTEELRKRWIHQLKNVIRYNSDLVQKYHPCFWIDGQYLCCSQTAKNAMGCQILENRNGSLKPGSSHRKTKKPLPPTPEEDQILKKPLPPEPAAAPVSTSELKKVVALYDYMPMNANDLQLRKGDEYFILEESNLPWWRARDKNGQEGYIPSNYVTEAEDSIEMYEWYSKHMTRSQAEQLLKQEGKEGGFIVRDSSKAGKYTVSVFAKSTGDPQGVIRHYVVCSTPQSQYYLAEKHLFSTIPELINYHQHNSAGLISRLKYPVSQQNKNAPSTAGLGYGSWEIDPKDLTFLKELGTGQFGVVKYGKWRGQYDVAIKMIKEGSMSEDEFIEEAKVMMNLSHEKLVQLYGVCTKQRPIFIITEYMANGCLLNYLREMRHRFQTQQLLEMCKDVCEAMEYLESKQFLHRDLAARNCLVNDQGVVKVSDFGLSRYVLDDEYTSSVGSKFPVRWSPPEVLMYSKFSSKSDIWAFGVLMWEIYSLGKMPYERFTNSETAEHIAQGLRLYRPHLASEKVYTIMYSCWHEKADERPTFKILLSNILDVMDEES

Row | SMILES | pIC50 (SRC) | pIC50 (JAK3) | pIC50 (BTK-WT) | pIC50 (LCK)
1 | C[C@@H]1[C@H](NC(=O)c2ccc(C(O)C(F)(F)F)cc2)CCCN1c1cnc(C(N)=O)c(Nc2cnn(C)c2)n1 (single isomer, unassigned) [Example D-249] | 7.00 to 8.00 | 5.00 to 6.00 | ≥ 8.00 | 7.00 to 8.00
2 | C[C@@H]1[C@H](NC(=O)c2ccc(C(O)C(F)(F)F)cc2)CCCN1c1cnc(C(N)=O)c(Nc2cnn(C)c2)n1 (single isomer, unassigned) [Example D-250] | 7.00 to 8.00 | 6.00 to 7.00 | ≥ 8.00 | 7.00 to 8.00
3 | C[C@@H]1[C@H](NC(=O)c2ccc(C(C)(O)CO)cc2)CCCN1c1cnc(C(N)=O)c(Nc2cnn(C)c2)n1 (single isomer, unassigned) [Example D-256] | 7.00 to 8.00 | 6.00 to 7.00 | ≥ 8.00 | 7.00 to 8.00
4 | C[C@@H]1[C@H](NC(=O)c2ccc(C(C)(O)CO)cc2)CCCN1c1cnc(C(N)=O)c(Nc2cnn(C)c2)n1 (single isomer, unassigned) [Example D-265] | 7.00 to 8.00 | 6.00 to 7.00 | ≥ 8.00 | 6.00 to 7.00
5 | C[C@@H]1[C@H](NC(=O)c2cc3c(n2C)CC(C)(C)C3)CCCN1c1cnc(C(N)=O)c(Nc2cnn(C)c2)n1 [Example D-19, 3-[(1-methyl-1H-pyrazol-4-yl)amino]-5-[(2R,3R)-2-methyl-3-{1,5,5-trimethyl-1H,4H,5H,6H-cyclopenta[b]pyrrole-2-amido}piperidin-1-yl]pyrazine-2-carboxamide] | 6.00 to 7.00 | 6.00 to 7.00 | ≥ 8.00 | 6.00 to 7.00
6 | C[C@@H]1[C@H](NC(=O)c2ccc(C3CC3)cc2Cl)CCCN1c1cnc(C(N)=O)c(Nc2cnn(C)c2)n1 [Example D-20, 5-[(2R,3R)-3-(2-chloro-4-cyclopropylbenzamido)-2-methylpiperidin-1-yl]-3-[(1-methyl-1H-pyrazol-4-yl)amino]pyrazine-2-carboxamide] | 6.00 to 7.00 | 5.00 to 6.00 | ≥ 8.00 | 6.00 to 7.00
7 | C[C@@H]1[C@H](NC(=O)c2ccc(C3CC3)cn2)CCCN1c1cnc(C(N)=O)c(Nc2cnn(C)c2)n1 [Example D-21, 5-[(2R,3R)-3-(5-cyclopropylpyridine-2-amido)-2-methylpiperidin-1-yl]-3-[(1-methyl-1H-pyrazol-4-yl)amino]pyrazine-2-carboxamide] | 7.00 to 8.00 | 5.00 to 6.00 | ≥ 8.00 | 6.00 to 7.00
8 | C[C@@H]1[C@H](NC(=O)c2ccc(C(C)(C)C)cc2)CCCN1c1cnc(C(N)=O)c(Nc2cnn(C)c2)n1 [Example D-22, 5-[(2R,3R)-3-(4-tert-butylbenzamido)-2-methylpiperidin-1-yl]-3-[(1-methyl-1H-pyrazol-4-yl)amino]pyrazine-2-carboxamide] | 6.00 to 7.00 | < 5.00 | ≥ 8.00 | 5.00 to 6.00
9 | C[C@@H]1[C@H](NC(=O)c2ccc(C3COC3)cc2)CCCN1c1cnc(C(N)=O)c(Nc2cnn(C)c2)n1 [Example D-23, 3-[(1-methyl-1H-pyrazol-4-yl)amino]-5-[(2R,3R)-2-methyl-3-[4-(oxetan-3-yl)benzamido]piperidin-1-yl]pyrazine-2-carboxamide] | 7.00 to 8.00 | 6.00 to 7.00 | ≥ 8.00 | 6.00 to 7.00
10 | C[C@@H]1[C@H](NC(=O)c2ccc(N(C)C)cc2)CCCN1c1cnc(C(N)=O)c(Nc2cnn(C)c2)n1 [Example D-24, 5-[(2R,3R)-3-[4-(dimethylamino)benzamido]-2-methylpiperidin-1-yl]-3-[(1-methyl-1H-pyrazol-4-yl)amino]pyrazine-2-carboxamide] | 6.00 to 7.00 | 5.00 to 6.00 | ≥ 8.00 | 7.00 to 8.00
11 | C[C@@H]1[C@H](NC(=O)c2ccc(C3CC3)cc2C(F)(F)F)CCCN1c1cnc(C(N)=O)c(Nc2cnn(C)c2)n1 [Example D-25, 5-[(2R,3R)-3-[4-cyclopropyl-2-(trifluoromethyl)benzamido]-2-methylpiperidin-1-yl]-3-[(1-methyl-1H-pyrazol-4-yl)amino]pyrazine-2-carboxamide] | 6.00 to 7.00 | 5.00 to 6.00 | 7.00 to 8.00 | 6.00 to 7.00
12 | C[C@@H]1[C@H](NC(=O)c2ccc3ncsc3c2)CCCN1c1cnc(C(N)=O)c(Nc2cnn(C)c2)n1 [Example D-243, N-[(2R,3R)-1-{5-carbamoyl-6-[(1-methyl-1H-pyrazol-4-yl)amino]pyrazin-2-yl}-2-methylpiperidin-3-yl]-1,3-benzothiazole-6-carboxamide] | 7.00 to 8.00 | 6.00 to 7.00 | ≥ 8.00 | 7.00 to 8.00
13 | C[C@@H]1[C@H](NC(=O)c2cc(C(C)(C)C)n[nH]2)CCCN1c1cnc(C(N)=O)c(Nc2cnn(C)c2)n1 [Example D-244, 5-[(2R,3R)-3-(3-tert-butyl-1H-pyrazole-5-amido)-2-methylpiperidin-1-yl]-3-[(1-methyl-1H-pyrazol-4-yl)amino]pyrazine-2-carboxamide] | 7.00 to 8.00 | 6.00 to 7.00 | ≥ 8.00 | 6.00 to 7.00
14 | C[C@@H]1[C@H](NC(=O)c2ccc(C3CC3)c(O)c2)CCCN1c1cnc(C(N)=O)c(Nc2cnn(C)c2)n1 [Example D-245, 5-[(2R,3R)-3-(4-cyclopropyl-3-hydroxybenzamido)-2-methylpiperidin-1-yl]-3-[(1-methyl-1H-pyrazol-4-yl)amino]pyrazine-2-carboxamide] | 7.00 to 8.00 | 6.00 to 7.00 | ≥ 8.00 | 6.00 to 7.00
15 | Cc1cc2cc(C(=O)N[C@@H]3CCCN(c4cnc(C(N)=O)c(Nc5cnn(C)c5)n4)[C@@H]3C)ccc2o1 [Example D-246, 3-[(1-methyl-1H-pyrazol-4-yl)amino]-5-[(2R,3R)-2-methyl-3-(2-methyl-1-benzofuran-5-amido)piperidin-1-yl]pyrazine-2-carboxamide] | 7.00 to 8.00 | 5.00 to 6.00 | ≥ 8.00 | 7.00 to 8.00
16 | C[C@@H]1[C@H](NC(=O)c2cc(C(C)(C)C)on2)CCCN1c1cnc(C(N)=O)c(Nc2cnn(C)c2)n1 [Example D-247, 5-[(2R,3R)-3-(5-tert-butyl-1,2-oxazole-3-amido)-2-methylpiperidin-1-yl]-3-[(1-methyl-1H-pyrazol-4-yl)amino]pyrazine-2-carboxamide] | 6.00 to 7.00 | 5.00 to 6.00 | ≥ 8.00 | 6.00 to 7.00
17 | COCCN(C)c1ccc(C(=O)N[C@@H]2CCCN(c3cnc(C(N)=O)c(Nc4cnn(C)c4)n3)[C@@H]2C)cc1 [Example D-248, 5-[(2R,3R)-3-{4-[(2-methoxyethyl)(methyl)amino]benzamido}-2-methylpiperidin-1-yl]-3-[(1-methyl-1H-pyrazol-4-yl)amino]pyrazine-2-carboxamide] | 7.00 to 8.00 | 6.00 to 7.00 | ≥ 8.00 | 7.00 to 8.00
18 | C[C@@H]1[C@H](NC(=O)c2ccc(C(C)(C)F)cc2)CCCN1c1cnc(C(N)=O)c(Nc2cnn(C)c2)n1 [Example D-251, 5-[(2R,3R)-3-[4-(2-fluoropropan-2-yl)benzamido]-2-methylpiperidin-1-yl]-3-[(1-methyl-1H-pyrazol-4-yl)amino]pyrazine-2-carboxamide] | 7.00 to 8.00 | 5.00 to 6.00 | ≥ 8.00 | 7.00 to 8.00
19 | C[C@@H]1[C@H](NC(=O)c2cc(C3CC3)n[nH]2)CCCN1c1cnc(C(N)=O)c(Nc2cnn(C)c2)n1 [Example D-252, 5-[(2R,3R)-3-(3-cyclopropyl-1H-pyrazole-5-amido)-2-methylpiperidin-1-yl]-3-[(1-methyl-1H-pyrazol-4-yl)amino]pyrazine-2-carboxamide] | 7.00 to 8.00 | 6.00 to 7.00 | ≥ 8.00 | 7.00 to 8.00

Reference: patent US20210070748A1, “INHIBITORS OF BRUTONS TYROSINE KINASE” (Pharmacyclics LLC, priority 2015, published 2021)
